Tests used:
[1] = test system: tPA binding to amyloid-like aggregates; details: ELISAs; patent application P57716EP00 and unpublished data; cited from earlier work
[2] = target: T1, LRP cl-IV binding to BSA-AGE (Bos taurus, UniProt P02769); assay: ELISA, interference with LRP cl-IV binding to BSA-AGE; set-up: species or system human; details: concentration series, 50 times diluted LRP cl-IV medium
T1 construct: made in house; host or cells: HEK293E/S (LRP cl-IV, culture supernatant)
Experimental: To test whether amyloid-like crossbeta structure binding compounds tPA, Congo red, Thioflavin T and Thioflavin S interfere with LRP cl-IV binding to BSA-AGE, concentration series of the potential inhibitory amyloid binding moieties were tested in the presence of 50 times diluted medium containing LRP cl-IV. The following inhibitors were used: tPA, Congo red, Thioflavin T (ThT) and Thioflavin S (ThS). As a control to tPA, K2P tPA, which lacks the amyloid-like misfolded protein binding finger domain, was included in the analyses. The influence of tPA and K2P tPA was tested in the presence of 10 mM ε-amino caproic acid to avoid binding of the kringle2 domain of tPA and K2P tPA to lysine- and arginine residues. Binding buffer and K2P tPA serve as negative controls in these inhibition studies. The concentration series was measured in triplicate, the values averaged and standard deviations calculated. Background signals obtained with buffer-coated wells were subtracted. Signals obtained with binding of LRP cluster IV to BSA-AGE was set arbitrarily to a reference binding of 100% and signals obtained with the concentration series of misfolded protein binding moieties and K2P tPA were calculated based on this set reference.

[3] = test system: platelets; assay: Aggregometric assay with washed platelets; type: cell-based, human; details: 200 μM
Experimental: The presence of protein(s) and/or peptide(s) with amyloid-like misfolded protein conformation on activated blood platelets was tested with washed platelets in an aggregometric assay. Freshly drawn human aspirin free blood was mixed gently with citrate buffer to avoid coagulation. Blood was spinned for 15 minutes at 150*g at 20° C. and supernatant was collected; platelet rich plasma (PRP). […] After spinning down the platelets upon centrifugation for 15 minutes at 330*g at 20° C., the pellet was resuspended in HEPES-Tyrode buffer pH 6.5. Prostacyclin was added to a final concentration of 10 ng/ml, and the solution was centrifuged for 15 minutes at 330*g at 20° C., with a soft brake. The pellet was resuspended in HEPES-Tyrode buffer pH 7.2 in a way that the final platelet number was adjusted to 200,000/μl. Platelets were kept at 37° C. for at least 30 minutes, before use in the assays, to ensure that they were in the resting state.
For the aggregometric assays, 400 μl platelet solution was added to a glass tube with 100 μl containing the agonist of interest, fibrinogen and CaCl2. Final concentrations of fibrinogen and CaCl2 were 0.5 mg/ml and 3 mM, respectively. A stirring magnet was added and the apparatus (Whole-blood aggregometer, Chrono-log, Havertown, Pa., USA) was blanked. Aggregation was followed in time by measuring the absorbance of the solution, that will decrease in time upon platelet aggregation. As a positive control, 0.5 U/ml thrombin was used, or TRAP. Aggregation was followed for 10 minutes. Influence of 200 μM Thioflavin T, 200 μM Congo red or 1 μM tPA on platelet aggregation was analyzed.

[4] = target: T2, Hb-AGE (Homo sapiens, UniProt P68871+P69905); assay: Binding of Hb-AGE from solution to immobilized ellagic acid; details: Hb-AGE 10 μg/ml, background subtracted
T2 construct: purchased Sigma-Aldrich H7379
Experimental: (§1) To test the ability of ellagic acid to bind to misfolded proteins, ellagic acid was immobilized at 100 μg/ml in the wells of a 96-wells Greiner Microlon high binding plate and a Nunc Maxisorp plate. Ellagic acid was coated in 100 mM NaHCO3 pH 9.6, 50 μp/well, 1 h at room temperature with agitation. As a control for subtraction of background signals of binding of misfolded proteins to wells without ellagic acid, wells were coated with buffer only. After blocking of the plates, wells were overlayed with solutions of 0.1/1/10 μg/ml Hb-AGE or 10/100 μg/ml Aβ, in binding buffer (PBS/0.1% Tween20). After washing, binding of Hb-AGE was assessed by overlaying wells with 1 μg/ml hybridoma antibody 4B5, which binds to glycations (^1), followed by RAMPO. Binding of Aβ was visualized using 500× diluted anti-Aβ antibodies (mouse antibody beta-amyloid Clone 6F/3D #M0872, lot 00003503, DAKOCytomation; β-amyloid (H-43) SC-9129, 200 μg/ml rabbit polyclonal IgG, Santa Cruz Biotechnology) and RAMPO/SWARPO in a 1:1 ratio. Finally, wells were overlayed with OPD/H2O2 solution, and H2SO4, before absorbance readings at 490 nm.

[5] = target: T3, tPA binding to DOVA (Gallus gallus, UniProt P01012); assay: ELISA, influence of ellagic acid on tPA binding to immobilized misfolded ovalbumin
T3 construct: purchased tPA: Boehringer Ingelheim (Actilyse); OVA: Sigma OVA: A-7641
T3 sequence (P01012 2-386 limits assumed): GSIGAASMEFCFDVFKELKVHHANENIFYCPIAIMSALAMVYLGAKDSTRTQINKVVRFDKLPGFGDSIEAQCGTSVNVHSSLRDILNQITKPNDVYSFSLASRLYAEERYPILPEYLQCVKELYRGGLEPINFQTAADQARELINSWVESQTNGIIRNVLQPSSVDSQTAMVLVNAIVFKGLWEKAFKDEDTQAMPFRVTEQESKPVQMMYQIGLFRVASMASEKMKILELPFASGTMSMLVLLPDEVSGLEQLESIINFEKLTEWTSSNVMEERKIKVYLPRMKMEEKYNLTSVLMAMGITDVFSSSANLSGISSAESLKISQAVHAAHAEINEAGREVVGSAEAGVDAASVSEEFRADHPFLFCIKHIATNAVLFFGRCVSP
Experimental: In a next series of experiments, the ability of ellagic acid that interacts with tPA and/or Hb-AGE, to bind to immobilized fb-AGE, heat-denatured misfolded ovalbumin and amyloid-β was analyzed. In a first experiment, the coated misfolded Hb-AGE was first incubated with ellagic acid. After washing, tPA binding was assessed. Similar binding assays are performed with misfolded OVA and Aβ. Finally, concentration series of ellagic acid are used in the binding studies.
Ellagic acid was co-incubated with 0.5 nM tPA. Controls: 1 mM ThT with 0.5 nM tPA, 0.5 mM CR with 0.5 nM tPA, 0.5 nM tPA without compound and buffer without tPA. Next, coated ELISA plates were first -pre-incubated with ellagic acid (for 30 minutes) followed by tPA incubation (for 30 minutes). For similar ELISA's with DOVA and Aβ(1-40) E22Q, 1 μg/ml DOVA or Aβ was coated and overlayed with 80 nM tPA. Subsequently, DOVA or Aβ coated wells and buffer-coated control wells were first incubated with 500 μg/ml ellagic acid, followed by an overlay with tPA.

[6] = target: T4, tPA binding to immobilized Hb-AGE (Homo sapiens, UniProt P68871+P69905); assay: ELISA, influence of ellagic acid on tPA binding to immobilized Hb-AGE
T4 construct: purchased tPA: Boehringer Ingelheim (Actilyse); Hb: Sigma-Aldrich Hb: H7379
Experimental: Determination of the influence of ellagic acid on the binding of a suboptimal concentration of tPA to a refined concentration of immobilized Hb-AGE. Parameter: a fixed concentration of tPA, in PBS with 0.1% (v/v) Tween20, 10 mM εACA and 10% DMSO, mixed with ellagic acid. As a positive control, tPA in binding buffer with 10% DMSO was used. This binding was set to 100% and values obtained after co-incubation of Hb-AGE with tPA with ellagic acid, were scaled accordingly. Binding experiments were performed in single wells, in a duplicate experiment. Binding data obtained with this duplicate experiment was averaged. Enhancement of tPA binding was arbitrarily set to values>100%. Inhibition of tPA binding to misfolded Hb-AGE was arbitrarily set to values smaller than 50%. With the chosen experimental lay-out, it can not be distinguished whether ellagic acid influences the interaction between tPA and Hb-AGE by binding to Hb-AGE only or by binding to tPA only or by binding to both tPA and Hb-AGE.
In a next series of experiments, the ability of ellagic acid that interacts with tPA and/or Hb-AGE, to bind to immobilized fb-AGE, heat-denatured misfolded ovalbumin and amyloid-β was analyzed. In a first experiment, the coated misfolded Hb-AGE was first incubated with ellagic acid. After washing, tPA binding was assessed. Similar binding assays are performed with misfolded OVA and Aβ. […]

[7] = target: T5, Aβ (Homo sapiens, UniProt P05067, E693Q); assay: Binding of Aβ from solution to immobilized ellagic acid; details: Nunc Maxisorp, Aβ 100 μg/ml, background subtracted
T5 construct: Human amyloid-β (Ap) (1-40) Dutch type
Experimental: as §1

[8] = target: T6, fibronectin F4,5 (Homo sapiens, UniProt P02751); assay: Affinity determination ELISA, fibronectin F4,5 on coated (mis)folded proteins; type: binding; details: coated protein as labelled
T6 construct: human fibronectin finger 4,5 (Fn F4,5) fragment; made in house; host or cells: HEK293E
Source text: (§2) Synthetic genes of human BiP, human fibronectin finger 4,5 (Fn F4,5) fragment, and human tissue-type plasminogen activator finger EGF (tPA F-EGF) fragment were ordered from Geneart (Regensburg, Germany). These DNA constructs were digested using BamHI and NotI, and ligated into vector pABC674 (ABC-expression facility, Utrecht University, The Netherlands), which contains a carboxy-terminal FLAG-tag—His-tag. HEK293E cells were transiently transfected with these constructs using the polyethylene-imine method, and grown for 5-6 days.
(§3) Denatured proteins and their native controls BSA (Sigma, A7906), glycated BSA, Hb (Sigma, H7605), glycated Hb, ovalbumin (Sigma, A6741), heat-denatured misfolded ovalbumin, human γ-globulins (Sigma, G4386), heat-denatured misfolded γ-globulins, alkyl-γ-globulins, lysozyme (ICN Biochemicals, 100831) and alkyl-lysozyme were coated on ELISA plates (Greiner Microlon high-binding, 655092) in 50 mM NaHCO3-buffer pH 9.6. The plates were blocked using Blocking reagent (Roche 1112589). […] Bound protein is detected by the FLAG-tag using 1:3000 anti-FLAG-HRP (Sigma A-8592) in PBS-T, or by 1:1000 Ni-NTA-HRP (Qiagen 34530) in PBS-T. The HRP reaction Is performed using the TMB substrate (Biosource 4501103 or Tebu Bio 101TMB100-500), stopped using 10% H2SO4 and absorbance was measured at 450 nm.

[9] = target: T7, BiP (Homo sapiens, UniProt P11021); assay: Affinity determination ELISA, BiP on coated (mis)folded proteins; type: binding; details: coated protein as labelled
T7 construct: made in house; host or cells: HEK293E
Source text: as §2, §3

T1 sequence (P02769 25-607): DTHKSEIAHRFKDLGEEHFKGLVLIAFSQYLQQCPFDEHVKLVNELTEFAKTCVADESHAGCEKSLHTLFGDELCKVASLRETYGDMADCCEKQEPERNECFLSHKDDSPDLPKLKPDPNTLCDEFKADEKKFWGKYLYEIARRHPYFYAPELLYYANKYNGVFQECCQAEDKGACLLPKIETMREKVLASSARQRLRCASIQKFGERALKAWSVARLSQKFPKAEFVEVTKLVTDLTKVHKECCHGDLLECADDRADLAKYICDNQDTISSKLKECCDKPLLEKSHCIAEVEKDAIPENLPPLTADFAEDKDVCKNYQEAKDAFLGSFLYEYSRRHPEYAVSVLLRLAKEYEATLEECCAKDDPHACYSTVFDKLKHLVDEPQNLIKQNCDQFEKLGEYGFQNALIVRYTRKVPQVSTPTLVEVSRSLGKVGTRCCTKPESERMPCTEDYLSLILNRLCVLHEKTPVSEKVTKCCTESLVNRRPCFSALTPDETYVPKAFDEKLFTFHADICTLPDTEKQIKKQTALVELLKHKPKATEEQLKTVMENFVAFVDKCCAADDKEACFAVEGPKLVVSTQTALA
T4 sequence (P69905 2-142 limits assumed): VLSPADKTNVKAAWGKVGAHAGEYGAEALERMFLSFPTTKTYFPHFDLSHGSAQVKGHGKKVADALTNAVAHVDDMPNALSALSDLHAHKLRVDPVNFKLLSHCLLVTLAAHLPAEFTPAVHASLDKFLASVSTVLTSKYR
T4 sequence (P68871 2-147 limits assumed): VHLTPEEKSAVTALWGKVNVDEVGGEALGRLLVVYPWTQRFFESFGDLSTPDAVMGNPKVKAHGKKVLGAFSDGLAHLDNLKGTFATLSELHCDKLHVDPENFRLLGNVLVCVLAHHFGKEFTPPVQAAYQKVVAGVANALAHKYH
T2 sequence (P69905 2-142 limits assumed): as the sequence (P69905 2-142 limits assumed) above
T2 sequence (P68871 2-147 limits assumed): as the sequence (P68871 2-147 limits assumed) above
T6 sequence (P02751 182-276 limits assumed): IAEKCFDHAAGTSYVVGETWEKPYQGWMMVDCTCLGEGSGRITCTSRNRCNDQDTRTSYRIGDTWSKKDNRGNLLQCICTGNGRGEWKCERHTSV
T7 sequence (P11021 19-654): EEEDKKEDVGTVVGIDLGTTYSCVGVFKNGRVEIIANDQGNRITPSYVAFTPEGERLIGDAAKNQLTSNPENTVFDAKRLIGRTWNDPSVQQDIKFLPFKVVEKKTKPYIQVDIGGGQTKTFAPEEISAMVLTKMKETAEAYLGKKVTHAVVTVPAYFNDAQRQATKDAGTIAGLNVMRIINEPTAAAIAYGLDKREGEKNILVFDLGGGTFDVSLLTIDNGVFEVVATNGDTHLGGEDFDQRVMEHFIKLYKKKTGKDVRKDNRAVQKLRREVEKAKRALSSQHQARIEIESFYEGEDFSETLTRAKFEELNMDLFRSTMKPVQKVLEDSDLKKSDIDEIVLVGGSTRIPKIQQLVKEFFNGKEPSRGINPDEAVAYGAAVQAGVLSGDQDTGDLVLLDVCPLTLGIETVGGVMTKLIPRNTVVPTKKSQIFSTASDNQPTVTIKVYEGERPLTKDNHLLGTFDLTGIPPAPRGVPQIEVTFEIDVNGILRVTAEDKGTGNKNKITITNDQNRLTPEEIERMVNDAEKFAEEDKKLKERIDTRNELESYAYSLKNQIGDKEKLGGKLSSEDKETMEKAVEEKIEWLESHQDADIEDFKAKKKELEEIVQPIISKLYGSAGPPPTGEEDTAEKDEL

Nc1c(/N=N/c2ccc(-c3ccc(/N=N/c4cc(S(=O)(=O)O)c5ccccc5c4N)cc3)cc2)cc(S(=O)(=O)O)c2ccccc12 [Congo red]
competition for tPA binding to amyloid-like aggregates [1]: can efficiently compete for tPA binding | influence on binding of LRP cl-IV to BSA-AGE [2]: inhibit binding of LRP cl-IV to BSA-AGE to a large extent | inhibition at 200 µM ([3]; Homo sapiens, Platelet, read-out: inhibition of platelet aggregation): ≤ 30%

Cc1ccc2c(c1)sc(-c1ccc(N(C)C)cc1)[n+]2C.[Cl-] [ThT, Thioflavin T]
competition for tPA binding to amyloid-like aggregates [1]: did not inhibit tPA binding at all | influence on binding of LRP cl-IV to BSA-AGE [2]: do not interfere | inhibition of platelet aggregation [3]: up to 45%

O=c1oc2c(O)c(O)cc3c(=O)oc4c(O)c(O)cc1c4c23 [ellagic acid]
Signal ([4]; Greiner Microlon): 0.13 a.u. | Signal ([4]; Nunc Maxisorp): 0.15 a.u. | influence on tPA binding to DOVA [5]: stimulator of tPA binding | influence on tPA binding to Hb-AGE ([6]; ELISA): stimulator of tPA binding | direct interaction with immobilized misfolded protein ([6]; pre-incubation of coated Hb-AGE or misfolded OVA, then tPA): binds directly to misfolded protein | Signal [7]: 0.054 a.u.

Freshly dissolved lysozyme: lysozyme (ICN Biochemicals)
affinity for fibronectin F4,5 [8]: high affinity

heat-denatured BSA: heat-denatured bovine serum albumin
binding of BiP [9]: not

Reference: patent US20080220446A1, “Method for Detecting and/or Removing Protein and/or Peptide Comprising a Cross-Beta Structure From an Aqueous Solution Comprising a Protein” (priority 2005, published 2008)
